From ChEMBL document CHEMBL1201862, “PubChem BioAssay data set” (2004) come the findings set out here.

As usually defined, the AC50 is the concentration at which the activity in the assay is half-maximal.

The source made the active and inactive calls.

Assay [1] can be described thus: DNA binding of candidate compounds, dose response, artefact control for RAD54 inhibitor project, biochemical, fluorescence polarization, cherry-pick (AID 651673). Format: functional. In general terms: Polarisation of emitted light reports the rotation of a fluorescent probe.
Assay [2] has as its target T1, DNA repair and recombination protein RAD54-like (Homo sapiens, UniProt Q92698).
T1 sequence (Q92698 whole entry): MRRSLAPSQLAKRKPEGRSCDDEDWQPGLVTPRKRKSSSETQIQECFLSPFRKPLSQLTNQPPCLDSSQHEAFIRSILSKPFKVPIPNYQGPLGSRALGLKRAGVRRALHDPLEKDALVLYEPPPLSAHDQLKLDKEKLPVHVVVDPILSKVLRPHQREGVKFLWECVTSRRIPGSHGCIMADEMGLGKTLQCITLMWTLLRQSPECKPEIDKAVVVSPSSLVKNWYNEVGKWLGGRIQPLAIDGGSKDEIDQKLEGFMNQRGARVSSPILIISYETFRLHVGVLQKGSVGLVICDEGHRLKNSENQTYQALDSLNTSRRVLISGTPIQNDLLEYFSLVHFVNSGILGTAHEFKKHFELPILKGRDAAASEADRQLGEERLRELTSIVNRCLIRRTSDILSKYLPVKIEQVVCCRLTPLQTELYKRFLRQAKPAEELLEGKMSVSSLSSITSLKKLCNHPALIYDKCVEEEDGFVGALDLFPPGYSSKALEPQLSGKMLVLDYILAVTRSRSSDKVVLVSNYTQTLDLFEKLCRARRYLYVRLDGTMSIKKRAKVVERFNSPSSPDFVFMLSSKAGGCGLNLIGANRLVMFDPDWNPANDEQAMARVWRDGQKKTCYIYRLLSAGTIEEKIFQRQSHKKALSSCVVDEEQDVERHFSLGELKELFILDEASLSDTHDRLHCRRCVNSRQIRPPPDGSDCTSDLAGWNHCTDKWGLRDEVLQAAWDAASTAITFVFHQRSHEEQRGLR
As to the kind of experiment: inhibitors of human RAD54 branch migration, confirmation, biochemical, fluorescence, cherry-picked samples, dose series (AID 651657). Type of assay: functional.

The target of assay [3] is T2, DNA repair protein RAD52 homolog (Homo sapiens, UniProt P43351).
T2 sequence (P43351 whole entry): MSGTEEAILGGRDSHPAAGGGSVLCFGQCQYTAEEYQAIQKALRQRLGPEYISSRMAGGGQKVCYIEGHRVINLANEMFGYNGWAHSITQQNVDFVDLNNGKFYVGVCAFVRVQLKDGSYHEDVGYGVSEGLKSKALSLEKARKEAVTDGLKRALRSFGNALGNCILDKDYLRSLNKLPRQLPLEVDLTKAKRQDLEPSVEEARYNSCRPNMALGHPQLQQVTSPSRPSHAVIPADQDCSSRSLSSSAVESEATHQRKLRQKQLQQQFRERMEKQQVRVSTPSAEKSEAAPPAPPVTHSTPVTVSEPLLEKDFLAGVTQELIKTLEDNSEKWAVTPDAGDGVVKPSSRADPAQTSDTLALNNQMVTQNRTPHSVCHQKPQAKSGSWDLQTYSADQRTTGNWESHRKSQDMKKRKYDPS
Type of assay: functional, biochemical.

The next assay deals with Cryptococcus neoformans. In words: PubChem AID 686997. Type of assay: functional, organism-based.
In a further assay the test system is HEK293. In words: HEK293T cell cytotoxicity, dose response, cytotoxicity control, ATP luminescence, cherry-pick samples (AID 687005).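 Also: cells exposed to compound for 48 hours.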 Format: functional, cell-based. The settings on record: Homo sapiens.
The nature of assay [4]: HEK293 Cytotoxicity Assay Measured in Cell-Based System Using Plate Reader - 7071-01_Inhibitor_Dose_CherryPick_Activity_Set2. Type of assay: functional.
For another assay, the system named is Vero. As to the kind of experiment: Vero cell toxicity, dose response, cytotoxicity control, plate reader, cherry-pick samples (AID 687020). Type of assay: functional, cell-based. The settings on record: Chlorocebus sabaeus.
For a further assay, the target named is Protein Wnt-3a (Mus musculus, UniProt P27467). As to the kind of experiment: SAR analysis of small molecule antagonists of Gli-SUFU in a Wnt3a luminescent reporter assay. Type of assay: functional.
Protein Wnt-3a, sequence (P27467 whole entry): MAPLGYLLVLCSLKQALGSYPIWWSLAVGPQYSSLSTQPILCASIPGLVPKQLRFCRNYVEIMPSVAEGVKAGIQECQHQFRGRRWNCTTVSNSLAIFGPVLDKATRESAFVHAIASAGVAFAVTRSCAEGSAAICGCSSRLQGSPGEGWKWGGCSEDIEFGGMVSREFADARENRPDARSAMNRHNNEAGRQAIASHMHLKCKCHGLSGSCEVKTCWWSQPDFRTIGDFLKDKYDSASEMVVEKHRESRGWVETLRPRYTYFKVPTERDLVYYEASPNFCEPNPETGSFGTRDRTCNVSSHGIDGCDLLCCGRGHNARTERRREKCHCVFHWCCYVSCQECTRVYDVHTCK
For assay [5], the target named is T3, Methionyl-tRNA synthetase, putative (Trypanosoma brucei brucei, UniProt Q38C91). Type of assay: functional, Trypanosoma brucei brucei strain 927/4 GUTat10.1.
T3 sequence (Q38C91 whole entry): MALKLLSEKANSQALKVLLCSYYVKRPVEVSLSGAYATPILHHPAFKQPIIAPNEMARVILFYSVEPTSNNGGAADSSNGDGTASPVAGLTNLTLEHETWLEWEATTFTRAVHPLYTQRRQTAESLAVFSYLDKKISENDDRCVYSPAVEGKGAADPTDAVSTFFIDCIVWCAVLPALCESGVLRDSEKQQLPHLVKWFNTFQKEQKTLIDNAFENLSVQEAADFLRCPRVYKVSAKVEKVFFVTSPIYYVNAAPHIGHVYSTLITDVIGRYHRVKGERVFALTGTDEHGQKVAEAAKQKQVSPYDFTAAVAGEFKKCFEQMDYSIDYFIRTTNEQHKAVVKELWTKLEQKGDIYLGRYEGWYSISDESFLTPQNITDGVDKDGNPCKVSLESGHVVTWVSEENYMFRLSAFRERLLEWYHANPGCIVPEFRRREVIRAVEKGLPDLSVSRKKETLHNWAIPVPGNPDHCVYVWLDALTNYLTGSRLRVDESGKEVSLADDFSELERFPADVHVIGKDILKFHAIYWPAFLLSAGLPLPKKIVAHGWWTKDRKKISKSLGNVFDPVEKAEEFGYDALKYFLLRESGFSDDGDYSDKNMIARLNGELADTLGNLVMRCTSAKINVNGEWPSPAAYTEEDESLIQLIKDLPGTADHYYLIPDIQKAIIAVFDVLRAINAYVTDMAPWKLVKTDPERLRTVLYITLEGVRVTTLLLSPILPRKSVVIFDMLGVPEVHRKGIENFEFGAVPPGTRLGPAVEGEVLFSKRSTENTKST
A short description of assay [6]: Counterscreen for inhibitors of Trypanosoma brucei methionyl tRNA synthetase (MetRS): Luminescence-based cell-based high throughput dose response assay to identify compounds that are cytotoxic to Jurkat human T lymphocyte cells. Type of assay: functional.
Assay [7] has as its target T3, Methionyl-tRNA synthetase, putative. Format: functional, Trypanosoma brucei brucei strain 927/4 GUTat10.1. This is another data set of the same source.
In assay [8] the target is T4, Low molecular weight phosphotyrosine protein phosphatase (Homo sapiens, UniProt P24666).
T4 sequence (P24666 whole entry): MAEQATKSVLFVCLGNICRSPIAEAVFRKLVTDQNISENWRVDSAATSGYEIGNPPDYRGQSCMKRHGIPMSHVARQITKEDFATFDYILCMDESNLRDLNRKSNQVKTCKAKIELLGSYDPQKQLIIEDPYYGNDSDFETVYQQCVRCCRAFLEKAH
Format: functional. The settings on record: read-out: IC50_Mean.

The target of assay [9] is T4, Low molecular weight phosphotyrosine protein phosphatase. Type of assay: functional. The settings on record: read-out: IC50_Mean. The source holds these as a separate data set.
The target of a further assay is Paired box protein Pax-8 (Homo sapiens, UniProt Q06710). As to the kind of experiment: inhibitors of PAX8-driven TPO luciferase reporter, dose response, RMG-I cells, cherry-pick (AID 687027).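 Also: luciferase reporter driven by Pax8 target thyroperoxidase promoter measured by SteadyGlo luminescence.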 Format: functional, cell-based. On the technique in general: In a reporter assay the amount or activity of a reporter protein is the signal.
Paired box protein Pax-8, sequence (Q06710 whole entry): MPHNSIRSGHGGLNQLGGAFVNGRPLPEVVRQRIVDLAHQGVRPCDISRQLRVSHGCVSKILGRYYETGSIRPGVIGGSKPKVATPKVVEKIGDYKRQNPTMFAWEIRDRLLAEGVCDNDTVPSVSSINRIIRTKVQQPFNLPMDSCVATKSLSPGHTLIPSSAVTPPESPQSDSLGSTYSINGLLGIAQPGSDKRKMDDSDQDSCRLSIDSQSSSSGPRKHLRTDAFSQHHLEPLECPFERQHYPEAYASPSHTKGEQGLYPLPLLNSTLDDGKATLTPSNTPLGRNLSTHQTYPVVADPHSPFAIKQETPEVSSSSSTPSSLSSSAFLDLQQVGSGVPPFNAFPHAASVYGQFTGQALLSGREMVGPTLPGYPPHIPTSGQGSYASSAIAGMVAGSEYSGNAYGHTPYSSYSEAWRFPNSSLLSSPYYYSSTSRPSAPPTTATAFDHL
Assay [10] can be described thus: IOSE-T80 ovarian epithelial cell cytotoxicity, dose response, cytotoxicity control for PAX8 inhibitor project, plate reader, dry powder samples (AID 743045). Type of assay: functional, cell-based.
The nature of assay [11]: A2780 ovarian cancer cell cytotoxicity, dose response, cytotoxicity control, plate reader, dry powder samples (AID 743046). Type of assay: functional, cell-based.
Assay [12] is described as follows: inhibitors of CMV-promoter luciferase reporter, dose response, counter-screen for Pax8 inhibitor project, cell-based, HEK293, luminescence, dry powder (AID 743020). Type of assay: functional.
The nature of assay [13]: NIH:OVCAR-3 ovarian cancer cell cytotoxicity, dose response, PAX8 inhibitor project, plate reader, dry powder samples (AID 743044). Format: functional, cell-based.
The nature of assay [14]: non-specific cell cytotoxicity, dose response, cytotoxicity control for PAX8 inhibitor project, plate reader, dry powder samples (AID 743021). Type of assay: functional, cell-based.
The nature of assay [15]: cytotoxicity in OVCAR8 ovarian cancer cells, dose response, PAX8 project, cell-based, plate reader, dry powder samples (AID 743197). The settings on record: OVCAR-8. Format: functional.

In the case of `c1cncc(Nc2c3ccccc3nc3ccccc23)c1`, the AC50 was 49.5 µM (active) in assay [1], 12.8 µM (active) in assay [2] and 7.23 µM (active) in assay [3].

For the compound `COC(=O)C1=C(C)N(Cc2ccc(F)cc2)C(=S)NC1c1cccc(Br)c1` (stereo not given), the AC50 is 36.7 µM (active) in the assay on Cryptococcus neoformans, 6.17 µM (active) with HEK293 and 6.17 µM (active) in assay [4].

For the compound `COc1cc(C)ccc1OCc1cc(C(=O)NCCN2CCCC(O)C2)no1` (stereo not given), in the assay on Vero, the AC50 is 30 µM (active).

As to `CC(C)CNc1cc(NC(=O)c2cccc(F)c2)ncn1`, the IC50 on Protein Wnt-3a was > 21.8 µM (inactive).

As for `Cc1cc(C)c(O)c(-c2cc(C(=O)NCCc3ccc(S(N)(=O)=O)cc3)[nH]n2)c1`, the IC50 in assay [5] is 39.5 µM (inactive); in [6], 83.3 µM (inactive); in assay [7], 70.9 µM (inactive).

`COCCNc1nc(NCc2cnc(C)cn2)c2sccc2n1`: the results for the IC50 in assay [8] and in assay [9] were 20.4 µM (inactive) and 13.5 µM (active), respectively.

Regarding `C[C@@H]1CN([C@H](C)CO)C(=O)c2cc(NC(=O)Nc3ccccc3)ccc2O[C@@H](C)CCCCO[C@@H]1CN(C)Cc1ccc(Cl)c(Cl)c1`, the AC50 was 4.45 µM (active) at Paired box protein Pax-8; 44.5 µM (active) in [10]; 14.9 µM (active) in [11]; 43.4 µM (active) in assay [12]; 18.4 µM (active) in assay [13]; 52.3 µM (active) in assay [14]. Further, the AC50 in assay [15] was 29.6 µM (active).
